# Assay results taken from paper PMC8815882, “Screening the pandemic response box identified benzimidazole carbamates, Olorofim and ravuconazole as promising drug candidates for the treatment of eumycetoma” (PLoS Neglected Tropical Diseases, 2022).
# Where two headings read alike, the source gives them in different places.
# What was measured:
# [1] = tested on: M. mycetomatis genome strain MM55; experiment: CLSI M38-A2 based in vitro susceptibility screening (XTT or resazurin), growth at fixed concentration; type: cell-based, Madurella mycetomatis; settings: Madurella mycetomatis
# M. mycetomatis MM55 = experiment: IC50 determination, 2-fold dilution series 16 to 0.03125 μM; type: cell-based, Madurella mycetomatis
# [2] = Madurella mycetomatis, MM55, mean of replicates; read-out: IC50 mean
# [3] = Madurella mycetomatis, MM55; replicate 1; read-out: IC50 1 um
# [4] = Madurella mycetomatis, MM55; replicate 2; read-out: IC50 2 um
# [5] = Madurella mycetomatis, MM55; replicate 3; read-out: IC50 3 um
# [6] = 25 uM, replicate A, read-out: Percentage survival at 25um, 25 um A
# [7] = mean of three replicates, read-out: Percentage survival at 100um, 100 uM mean
# [8] = replicate 1, read-out: Percentage survival at 100um, 100 uM A (first replicate column)
# [9] = replicate 2, read-out: Percentage survival at 100um, 100 uM A (second replicate column)
# [10] = replicate 3, read-out: Percentage survival at 100um, 100 uM A (third replicate column)
# [11] = 25 uM, mean of three replicates, read-out: Percentage survival at 25um, 25 uM mean
# [12] = 25 uM, replicate B, read-out: Percentage survival at 25um, 25 uM B
# [13] = 25 uM, replicate C, read-out: Percentage survival at 25um, 25 uM C
# [14] = Madurella mycetomatis, MM55, mean of three replicates; read-out: IC50 mean
# [15] = Madurella mycetomatis, MM55; replicate 1; read-out: IC90 1 um
# [16] = Madurella mycetomatis, MM55; replicate 2; read-out: IC90 2 um
# [17] = Madurella mycetomatis, MM55; replicate 3; read-out: IC90 3 um
# [18] = Madurella mycetomatis, MM55, mean of three replicates; read-out: IC90 mean
# [19] = 25 uM, mean of three, M. mycetomatis MM55, read-out: Percentage survival at 25um, 25 uM mean
# [20] = 25 uM, replicate A, M. mycetomatis MM55, read-out: Percentage survival at 25um, 25 um A
# [21] = 25 uM, replicate B, M. mycetomatis MM55, read-out: Percentage survival at 25um, 25 uM B
# [22] = 25 uM, replicate C, M. mycetomatis MM55, read-out: Percentage survival at 25um, 25 uM C
# [23] = mean of three, M. mycetomatis MM55, read-out: Percentage survival at 100um, 100 uM mean
# [24] = replicate 1, M. mycetomatis MM55, read-out: Percentage survival at 100um, 100 uM A (first replicate column)
# [25] = replicate 2, M. mycetomatis MM55, read-out: Percentage survival at 100um, 100 uM A (second replicate column)
# [26] = replicate 3, M. mycetomatis MM55, read-out: Percentage survival at 100um, 100 uM A (third replicate column)
SMILES,IC50 (M. mycetomatis MM55; [3]) [µM],IC50 (M. mycetomatis MM55; [4]) [µM],IC50 (M. mycetomatis MM55; [5]) [µM],IC50 (M. mycetomatis MM55; [14]) [µM],IC90 (M. mycetomatis MM55; [15]) [µM],IC90 (M. mycetomatis MM55; [16]) [µM],IC90 (M. mycetomatis MM55; [17]) [µM],IC90 (M. mycetomatis MM55; [18]) [µM],Drug static or cidal (M. mycetomatis MM55),"activity at 25 µM [1, 6] [%]","activity at 100 µM [1, 7] [%]","activity at 100 µM [1, 8] [%]","activity at 100 µM [1, 10] [%]","activity at 25 µM [1, 11] [%]","activity at 25 µM [1, 12] [%]","activity at 25 µM [1, 13] [%]","Percent fungal survival at 100 µM [1, 9] [%]",other results
COc1cc(NS(=O)(=O)c2ccc(C)cc2)c2ncccc2c1 [MMV098836],> 25,> 25,> 25,–,–,–,–,–,Static,–,–,–,–,–,–,–,–,"activity at 25 µM ([1]; 25 uM, mean of replicates, MM55, read-out: Percentage survival at 25um, 25 uM mean): 6.7%; activity at 25 µM ([1]; 25 uM, replicate A, MM55, read-out: Percentage survival at 25um, 25 um A): 6.32%; activity at 25 µM ([1]; 25 uM, replicate B, MM55, read-out: Percentage survival at 25um, 25 uM B): -0.482%; activity at 25 µM ([1]; 25 uM, replicate C, MM55, read-out: Percentage survival at 25um, 25 uM C): 14.3%; activity at 100 µM ([1]; mean of replicates, MM55, read-out: Percentage survival at 100um, 100 uM mean): 6.45%; activity at 100 µM ([1]; replicate 1, MM55, read-out: Percentage survival at 100um, 100 uM A): 4.22%; activity at 100 µM ([1]; replicate 2, MM55, read-out: Percentage survival at 100um, 100 uM A): 0.942%; activity at 100 µM ([1]; replicate 3, MM55, read-out: Percentage survival at 100um, 100 uM A): 14.2%; IC50 (M. mycetomatis MM55; [2]): > 25 µM; IC90 (M. mycetomatis MM55; Madurella mycetomatis, MM55; IC90, mean of replicates; read-out: IC90 mean): > 25 µM; IC90 (M. mycetomatis MM55; Madurella mycetomatis, MM55; IC90, replicate 1; read-out: IC90 1 um): > 25 µM; IC90 (M. mycetomatis MM55; Madurella mycetomatis, MM55; IC90, replicate 2; read-out: IC90 2 um): > 25 µM; IC90 (M. mycetomatis MM55; Madurella mycetomatis, MM55; IC90, replicate 3; read-out: IC90 3 um): > 25 µM"
Nc1c(C(=O)NCc2ccco2)c2nc3ccccc3nc2n1CCN1CCCCC1 [MMV099714],–,–,–,–,–,–,–,–,Static,45.3,3.55,-0.102,3.69,–,–,–,–,"activity at 100 µM [1, 9]: 7.05%; activity at 25 µM ([1]; read-out: Percentage survival at 25um, 25 uM B): -3.06%; activity at 25 µM ([1]; read-out: Percentage survival at 25um, 25 uM C): 13%; activity at 25 µM ([1]; read-out: Percentage survival at 25um, 25 uM mean): 18.4%; IC50 (M. mycetomatis MM55; Madurella mycetomatis, MM55, read-out: IC50 1 um): > 25 µM; IC50 (M. mycetomatis MM55; Madurella mycetomatis, MM55, read-out: IC50 2 um): > 25 µM; IC50 (M. mycetomatis MM55; Madurella mycetomatis, MM55, read-out: IC50 3 um): > 25 µM; IC50 (M. mycetomatis MM55; Madurella mycetomatis, MM55, read-out: IC50 mean): > 25 µM; IC90 (M. mycetomatis MM55; Madurella mycetomatis, MM55, read-out: IC90 1 um): > 25 µM; IC90 (M. mycetomatis MM55; Madurella mycetomatis, MM55, read-out: IC90 2 um): > 25 µM; IC90 (M. mycetomatis MM55; Madurella mycetomatis, MM55, read-out: IC90 3 um): > 25 µM; IC90 (M. mycetomatis MM55; Madurella mycetomatis, MM55, read-out: IC90 mean): > 25 µM"
NCC(=O)Nc1ccc(-n2nc(C(F)(F)F)cc2-c2ccc3c(ccc4ccccc43)c2)cc1 [MMV1578560],–,–,–,–,–,–,–,–,Static,29.4,–,–,–,–,-2.28,2.05,–,"activity at 25 µM ([1]; 25 uM, mean, read-out: Percentage survival at 25um, 25 uM mean): 9.74%; activity at 100 µM ([1]; mean, read-out: Percentage survival at 100um, 100 uM mean): 3%; activity at 100 µM ([1]; replicate (first column), read-out: Percentage survival at 100um, 100 uM A): -6.61%; activity at 100 µM ([1]; replicate (second column), read-out: Percentage survival at 100um, 100 uM A): 10.2%; activity at 100 µM ([1]; replicate (third column), read-out: Percentage survival at 100um, 100 uM A): 5.38%; IC90 (M. mycetomatis MM55; Madurella mycetomatis, MM55; read-out: IC90 mean): > 25 µM; IC50 (M. mycetomatis MM55; Madurella mycetomatis, MM55; replicate 1; read-out: IC50 1): 17.4 µM; IC90 (M. mycetomatis MM55; Madurella mycetomatis, MM55; replicate 1; read-out: IC90 1): > 25 µM; IC50 (M. mycetomatis MM55; Madurella mycetomatis, MM55; replicate 2; read-out: IC50 2): 22.8 µM; IC90 (M. mycetomatis MM55; Madurella mycetomatis, MM55; replicate 2; read-out: IC90 2): > 25 µM; IC50 (M. mycetomatis MM55; Madurella mycetomatis, MM55; replicate 3; read-out: IC50 3): > 25 µM; IC90 (M. mycetomatis MM55; Madurella mycetomatis, MM55; replicate 3; read-out: IC90 3): > 25 µM"
CC(C)Oc1ccc(-c2nc(-c3cccc4c3CC[C@@H]4NCCO)no2)cc1C#N [MMV1580492],> 25,> 25,> 25,> 25,> 25,> 25,> 25,> 25,Cidal,-14.6,2.78,-1.25,12,-6.9,-6.47,0.368,-2.44,–
FC(F)(F)Oc1ccc(Nc2ccc3cccc(Cl)c3n2)cc1 [MMV1581032],> 25,> 25,> 25,> 25,> 25,> 25,> 25,> 25,Static,-12.4,0.711,-4.67,5.8,-0.326,8.52,2.93,1,–
Cc1cc(O)c2c(c1)C(=O)c1c(I)c(O)c(I)c(O)c1C2=O [MMV1581545],> 25,> 25,> 25,> 25,> 25,> 25,> 25,> 25,Cidal,10.6,12.4,10.8,12.3,12.4,4.74,21.8,14.2,–

# Continued, in another order:
IC50 (M. mycetomatis MM55; [3]) [µM],IC50 (M. mycetomatis MM55; [4]) [µM],IC50 (M. mycetomatis MM55; [5]) [µM],IC50 (M. mycetomatis MM55; [14]) [µM],IC90 (M. mycetomatis MM55; [15]) [µM],IC90 (M. mycetomatis MM55; [16]) [µM],IC90 (M. mycetomatis MM55; [17]) [µM],IC90 (M. mycetomatis MM55; [18]) [µM],SMILES,Drug static or cidal (M. mycetomatis MM55),"activity at 25 µM [1, 6] [%]","activity at 100 µM [1, 7] [%]","activity at 100 µM [1, 8] [%]","activity at 100 µM [1, 10] [%]","activity at 25 µM [1, 11] [%]","activity at 25 µM [1, 12] [%]","activity at 25 µM [1, 13] [%]","Percent fungal survival at 100 µM [1, 9] [%]",other results
18.7,16.3,16.4,17.1,> 25,23.5,23.7,–,N=c1n(CCN2CCCCC2)c2ccccc2n1CC(O)COc1ccc(Cl)cc1Cl (stereo not drawn) [MMV394033],Cidal,-10.3,-2.82,-5.36,-0.0169,-4.41,-2.83,-0.144,-3.08,–
16.5,15.9,16.6,16.3,24.2,24.9,24.4,24.5,Oc1c(C(Nc2ccccn2)c2ccccc2)ccc2cccnc12 (stereo not drawn) [MMV565773],Cidal,9.67,11.7,9.08,17.8,15.4,6.46,30.1,8.24,–
23.9,14.6,> 25,–,> 25,22.9,> 25,–,CC(C)=CCC/C(C)=C/CNCCNC1C2CC3CC(C2)CC1C3 (stereo not drawn) [MMV687273],–,–,–,–,–,–,–,–,–,"activity at 25 µM [1, 19]: 1.12%; activity at 25 µM [1, 20]: -2.04%; activity at 25 µM [1, 21]: 4.77%; activity at 25 µM [1, 22]: 0.619%; activity at 100 µM [1, 23]: 6.61%; activity at 100 µM [1, 24]: 4.04%; Percent fungal survival at 100 µM [1, 25]: 15.3%; activity at 100 µM [1, 26]: 0.477%; Drug static or cidal (M. mycetomatis MM55; M. mycetomatis): Cidal"
6.8,12.5,12.1,–,23.7,22.2,22.2,–,O=S(=O)(Nc1cccc2cccnc12)c1ccccc1 [MMV1578890],–,–,–,–,–,–,–,–,–,"activity at 25 µM [1, 19]: 2.42%; activity at 25 µM [1, 20]: 2.33%; activity at 25 µM [1, 21]: 0.789%; activity at 25 µM [1, 22]: 4.13%; activity at 100 µM [1, 23]: 29.9%; activity at 100 µM [1, 24]: 1.58%; Percent fungal survival at 100 µM [1, 25]: 81.7%; activity at 100 µM [1, 26]: 6.47%; Drug static or cidal (M. mycetomatis MM55; M. mycetomatis): Static; IC50 (M. mycetomatis MM55; [2]): 10.5 µM; IC90 (M. mycetomatis MM55; Madurella mycetomatis, MM55, mean of replicates; read-out: IC90 mean): 22.7 µM"
13.2,15.8,16.5,15.2,23.1,23.6,24.2,23.6,N#Cc1c(F)c(Cl)c(NCc2ccccc2)c(C#N)c1F [MMV1582496],Static,2,2.09,-0.676,5.72,4.98,-0.68,13.6,1.24,–
